{"source": "patent US12187728B2", "about": "(Raze Therapeutics, Inc., priority 2015, dated 2025)", "note": "pIC50: −log10 of the molar value.", "data": [{"target": "T1, Human MTHFD2 (Homo sapiens, UniProt P13995)", "T1 construct": "residues 36-350 in Uniport ID P13995; His6 (N); made in house; host or cells: E. coli", "T1 sequence (P13995 36-350)": "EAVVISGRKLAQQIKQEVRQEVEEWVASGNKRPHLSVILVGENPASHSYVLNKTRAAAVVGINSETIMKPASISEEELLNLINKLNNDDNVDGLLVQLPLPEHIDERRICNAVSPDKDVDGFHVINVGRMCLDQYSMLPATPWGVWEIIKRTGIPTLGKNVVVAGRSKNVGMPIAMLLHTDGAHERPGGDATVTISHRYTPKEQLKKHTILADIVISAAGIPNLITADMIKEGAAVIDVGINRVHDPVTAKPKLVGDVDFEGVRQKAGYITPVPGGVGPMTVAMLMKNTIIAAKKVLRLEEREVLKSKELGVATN", "experiment": "MTHFD2 Activity Assay (dehydrogenase activity, diaphorase/resazurin coupled fluorescence)", "type": "biochemical", "conditions": "inhibitory activity (IC50 and/or binding constant); 0.2 nM MTHFD2, 11 concentrations", "source_text": "Human MTHFD2 (residues 36-350 in Uniport ID P13995) was expressed as an N-terminal His6 tagged protein and purified in E. coli using nickel capture followed by size-exclusion chromatography.\nMTHFD2 dehydrogenase activity oxidizes methylene tetrahyrofolate to methenyl-tetrahydrofolate with the concomitant reduction of NAD to NADH. MTHFD2 dehydrogenase activity was followed by coupling the generation of NADH to diaphorase catalyzed […] of resazurin to fluorescent resorufin. Briefly, control (DMSO) or compound was incubated with 0.2 nM MTHFD2 for 15 minutes in 10.5 μl assay buffer containing 100 mM Hepes, pH 8.0, 5 mM MgCl2, 5 mM KH2PO4, 0.05% BSA, 0.01% Tween-20 in a 384 well Griener, low volume, black plate. 10 μl of substrate buffer containing 70 μM CH2-THF, 1 mM NAD^+, 100 μM Resazurin and 0.42 mg/ml diaphorase was then added to initiate the reaction and the reaction plate was incubated for 30 minutes. 5 μl of 250 mM EDTA was then added to each well to stop the reaction and MTHFD2 activity was quantified by measuring resorufin fluorescence emission at 598 nm following excitation at 525 nm. Activity in positive control wells containing the complete reaction mixture and DMSO alone was set to 100% while activity in negative control wells with the complete reaction mix without MTHFD2 was set to 0%. 11 concentrations of each compound were tested and the fluorescent data at each concentration was normalized to the positive and negative controls and represented as % inhibition. Median inhibitory concentration (IC50) was calculated by fitting % inhibition at each concentration to a 4 parameter logistic fit equation using Graphpad Prizm.\nThe compound numbers correspond to the compound numbers in Table A (i.e., the example numbers).", "values": [{"smiles": "Cn1c(N[C@H]2CC[C@@H](O)C2)nc2c1c(=O)n(Cc1ccc3sccc3c1)c(=O)n2C", "note": "(racemic) [Example 74, (±)-1-(1-benzothiophen-5-ylmethyl)-8-{[(cis)-3-hydroxycyclopentyl]amino}-3,7-dimethyl-2,3,6,7-tetrahydro-1H-purine-2,6-dione or (±)-1-(1-benzothiophen-5-ylmethyl)-8-{[(trans)-3-hydroxycyclopentyl]amino}-3,7-dimethyl-2,3,6,7-tetrahydro-1H-purine-2,6-dione]", "pIC50": "6.00 to 8.00"}, {"smiles": "CN(C)C1CCCC(Nc2nc3c(c(=O)n(Cc4ccc(Cl)c(Cl)c4)c(=O)n3C)n2C)C1", "note": "(racemic) [Example 84, (±)-1-(3,4-dichlorobenzyl)-8-(((cis)-3-(dimethylamino)cyclohexyl)amino)-3,7-dimethyl-3,7-dihydro-1H-purine-2,6-dione or (±)-1-(3,4-dichlorobenzyl)-8-(((trans)-3-(dimethylamino)cyclohexyl)amino)-3,7-dimethyl-3,7-dihydro-1H-purine-2,6-dione]", "pIC50": "5.30 to 6.00"}, {"smiles": "Cn1c(NC2CNC(=O)C2)nc2c1c(=O)n(Cc1ccc(Cl)c(Cl)c1)c(=O)n2C", "note": "(racemic) [Example 88, (±)-1-[(3,4-dichlorophenyl)methyl]-3,7-dimethyl-8-[(5-oxopyrrolidin-3-yl)amino]-2,3,6,7-tetrahydro-1H-purine-2,6-dione]", "pIC50": "6.00 to 8.00"}, {"smiles": "Cn1c(NC2CCCNC2=O)nc2c1c(=O)n(Cc1ccc(Cl)c(Cl)c1)c(=O)n2C", "note": "(racemic) [Example 89, (±)-1-[(3,4-dichlorophenyl)methyl]-3,7-dimethyl-8-[(2-oxopiperidin-3-yl)amino]-2,3,6,7-tetrahydro-1H-purine-2,6-dione]", "pIC50": "6.00 to 8.00"}, {"smiles": "Cn1c(N[C@H]2CCCC[C@@H]2O)nc2c1c(=O)n(Cc1ccc(Cl)c(Cl)c1)c(=O)n2C", "note": "(racemic) [Example 91, (±)-1-[(3,4-dichlorophenyl)methyl]-8-{[(trans)-2-hydroxycyclohexyl]amino}-3,7-dimethyl-2,3,6,7-tetrahydro-1H-purine-2,6-dione±]", "pIC50": "6.00 to 8.00"}, {"smiles": "Cn1c(N[C@@H]2CCCC[C@@H]2O)nc2c1c(=O)n(Cc1ccc(Cl)c(Cl)c1)c(=O)n2C", "note": "(racemic) [Example 95, (±)-1-[(3,4-dichlorophenyl)methyl]-8-{[(cis)-2-hydroxycyclohexyl]amino}-3,7-dimethyl-2,3,6,7-tetrahydro-1H-purine-2,6-dione]", "pIC50": "5.30 to 6.00"}, {"smiles": "Cn1c(NC2CCCC(C(=O)O)C2)nc2c1c(=O)n(Cc1ccc(Cl)c(Cl)c1)c(=O)n2C", "note": "(racemic) [Example 114, (±)-3-(1-(3,4-dichlorobenzyl)-3,7-dimethyl-2,6-dioxo-2,3,6,7-tetrahydro-1H-purin-8-ylamino)cyclohexanecarboxylic acid]", "pIC50": "6.00 to 8.00"}, {"smiles": "Cn1c(NC2CCCC(C(=O)O)C2)nc2c1c(=O)n(Cc1ccc(C(F)(F)F)cc1)c(=O)n2C", "note": "(racemic) [Example 115, (±)-3-(3,7-dimethyl-2,6-dioxo-1-(4-(trifluoromethyl)benzyl)-2,3,6,7-tetrahydro-1H-purin-8-ylamino)cyclohexanecarboxylic acid]", "pIC50": "5.30 to 6.00"}, {"smiles": "Cn1c(N[C@H]2CC[C@@H](O)C2)nc2c1c(=O)n(Cc1cc3ccccc3[nH]1)c(=O)n2C", "note": "(racemic) [Example 155, (±)-1-((1H-indol-2-yl)methyl)-8-((cis)-3-hydroxycyclopentylamino)-3,7-dimethyl-1H-purine-2,6(3H,7H)-dione]", "pIC50": "6.00 to 8.00"}, {"smiles": "Cn1c(N[C@H]2CC[C@@H](O)C2)nc2c1c(=O)n(Cc1ccc3cc[nH]c3c1)c(=O)n2C", "note": "(racemic) [Example 163, (±)-1-((1H-indol-6-yl)methyl)-8-((cis)-3-hydroxycyclopentylamino)-3,7-dimethyl-1H-purine-2,6(3H,7H)-dione]", "pIC50": "5.30 to 6.00"}, {"smiles": "Cn1c(NC2CCC(C)(O)C2)nc2c1c(=O)n(Cc1ccc(Cl)c(Cl)c1)c(=O)n2C", "note": "(racemic) [Example 164, 1-[(3,4-dichlorophenyl)methyl]-8-[(3-hydroxy-3-methylcyclopentyl)amino]-3,7-dimethyl-2,3,6,7-tetrahydro-1H-purine-2,6-dione]", "pIC50": "6.00 to 8.00"}, {"smiles": "Cn1c(N[C@H]2CC[C@@H](O)C2)nc2c1c(=O)n(Cc1ccc(C(F)(F)F)cc1)c(=O)n2C", "note": "(racemic) [Example 171, (±)-8-((cis)-3-hydroxycyclopentylamino)-3,7-dimethyl-1-(4-(trifluoromethyl)benzyl)-1H-purine-2,6(3H,7H)-dione]", "pIC50": "5.30 to 6.00"}, {"smiles": "Cn1c(N[C@@H]2CCC[C@@H](O)C2)nc2c1c(=O)n(Cc1ccc(Cl)c(Cl)c1)c(=O)n2C", "note": "(racemic) [Example 172, (±)-1-(3,4-dichlorobenzyl)-8-((trans)-3-hydroxycyclohexylamino)-3,7-dimethyl-1H-purine-2,6(3H,7H)-dione]", "pIC50": "6.00 to 8.00"}, {"smiles": "Cn1c(N[C@H]2CCC[C@@H](O)C2)nc2c1c(=O)n(Cc1ccc(Cl)c(Cl)c1)c(=O)n2C", "note": "(racemic) [Example 173, (±)-1-(3,4-dichlorobenzyl)-8-((cis)-3-hydroxycyclohexylamino)-3,7-dimethyl-1H-purine-2,6(3H,7H)-dione]", "pIC50": "6.00 to 8.00"}, {"smiles": "Cn1c(N[C@H]2CC[C@@H](O)C2)nc2c1c(=O)n(Cc1cc3cc(Cl)ccc3[nH]1)c(=O)n2C", "note": "(racemic) [Example 175, (±)-1-((5-chloro-1H-indol-2-yl)methyl)-8-((cis)-3-hydroxycyclopentylamino)-3,7-dimethyl-1H-purine-2,6(3H,7H)-dione]", "pIC50": "6.00 to 8.00"}, {"smiles": "Cc1ccc2[nH]c(Cn3c(=O)c4c(nc(N[C@H]5CC[C@@H](O)C5)n4C)n(C)c3=O)cc2c1", "note": "(racemic) [Example 177, (±)-8-((cis)-3-hydroxycyclopentylamino)-3,7-dimethyl-1-((5-methyl-1H-indol-2-yl)methyl)-1H-purine-2,6(3H,7H)-dione]", "pIC50": "6.00 to 8.00"}, {"smiles": "Cn1c(Cn2c(=O)c3c(nc(N[C@H]4CC[C@@H](O)C4)n3C)n(C)c2=O)cc2cc(Cl)ccc21", "note": "(racemic) [Example 178, (±)-1-((5-chloro-1-methyl-1H-indol-2-yl)methyl)-8-((cis)-3-hydroxycyclopentylamino)-3,7-dimethyl-1H-purine-2,6(3H,7H)-dione]", "pIC50": "6.00 to 8.00"}, {"smiles": "Cn1c(Cn2c(=O)c3c(nc(N[C@H]4CC[C@@H](O)C4)n3C)n(C)c2=O)cc2ccccc21", "note": "(racemic) [Example 179, (±)-8-((cis)-3-hydroxycyclopentylamino)-3,7-dimethyl-1-((1-methyl-1H-indol-2-yl)methyl)-1H-purine-2,6(3H,7H)-dione]", "pIC50": "6.00 to 8.00"}, {"smiles": "Cn1c(N[C@H]2CC[C@@H](O)C2)nc2c1c(=O)n(Cc1cc(-c3ccccc3)n[nH]1)c(=O)n2C", "note": "(racemic) [Example 180, (±)-8-((cis)-3-hydroxycyclopentylamino)-3,7-dimethyl-1-((3-phenyl-1H-pyrazol-5-yl)methyl)-1H-purine-2,6(3H,7H)-dione]", "pIC50": "< 5.00"}, {"smiles": "Cn1c(NC2CCNC(=O)C2)nc2c1c(=O)n(Cc1ccc(Cl)c(Cl)c1)c(=O)n2C", "note": "(racemic) [Example 211, (±)-1-(3,4-dichlorobenzyl)-3,7-dimethyl-8-(2-oxopiperidin-4-ylamino)-1H-purine-2,6(3H,7H)-dione]", "pIC50": "6.00 to 8.00"}, {"smiles": "Cn1c(NC2CNC(=O)C2)nc2c1c(=O)n(Cc1cc3ccccc3[nH]1)c(=O)n2C", "note": "(racemic) [Example 214, (±)-1-((1H-indol-2-yl)methyl)-3,7-dimethyl-8-(5-oxopyrrolidin-3-ylamino)-1H-purine-2,6(3H,7H)-dione]", "pIC50": "6.00 to 8.00"}, {"smiles": "Cn1c(NC2CCNC(=O)C2)nc2c1c(=O)n(Cc1cc3ccccc3[nH]1)c(=O)n2C", "note": "(racemic) [Example 215, (±)-1-((1H-indol-2-yl)methyl)-3,7-dimethyl-8-(2-oxopiperidin-4-ylamino)-1H-purine-2,6(3H,7H)-dione]", "pIC50": "6.00 to 8.00"}, {"smiles": "Cn1c(NC2CCNC2=O)nc2c1c(=O)n(Cc1cc3ccccc3[nH]1)c(=O)n2C", "note": "(racemic) [Example 222, (±)-1-((1H-indol-2-yl)methyl)-3,7-dimethyl-8-(2-oxopyrrolidin-3-ylamino)-1H-purine-2,6(3H,7H)-dione]", "pIC50": "6.00 to 8.00"}, {"smiles": "Cn1c(N[C@@H]2CC[C@@H](O)C2)nc2c1c(=O)n(Cc1ccc(C#N)c(Cl)c1)c(=O)n2C", "note": "(racemic) [Example 247, (±)-2-chloro-4-((8-((trans)-3-hydroxycyclopentylamino)-3,7-dimethyl-2,6-dioxo-2,3,6,7-tetrahydro-1H-purin-1-yl)methyl)benzonitrile]", "pIC50": "5.30 to 6.00"}, {"smiles": "Cn1c(NC2CCCC(CO)C2)nc2c1c(=O)n(Cc1ccc(Cl)c(Cl)c1)c(=O)n2C", "note": "(racemic) [Example 254, (±)-1-(3,4-dichlorobenzyl)-8-(3-(hydroxymethyl)cyclohexylamino)-3,7-dimethyl-1H-purine-2,6(3H,7H)-dione]", "pIC50": "6.00 to 8.00"}]}]}
